Our source for the residual activity values is ChEMBL document CHEMBL1152560, “Substituted 2-arylbenzothiazoles as kinase inhibitors: hit-to-lead optimization” (Bioorg Med Chem, 2009).

In experiment [1] the target is CDK9/cyclin T1 (Homo sapiens) (UniProt O60563+P50750). The experiment is described as follows: Residual activity of CDK9/Cyclin T at 0.1 uM by microplate scintillation counting. The experiment is classed as protein-complex assay.
Experiment [2] addresses Interleukin-1 receptor-associated kinase 1 (Homo sapiens) (UniProt P51617). Nature of the experiment: Residual activity of IRAKI at 1 uM by microplate scintillation counting.
Experiment [3] addresses Death-associated protein kinase 3 (Homo sapiens) (UniProt O43293). The experiment is described as follows: Residual activity of DAPK3 at 0.1 uM by microplate scintillation counting.
Experiment [4] deals with Serine/threonine-protein kinase pim-2 (Homo sapiens) (UniProt Q9P1W9). Nature of the experiment: Residual activity of PIM2 at 10 uM by microplate scintillation counting.
Experiment [5] concerns the target T1, Inhibitor of nuclear factor kappa-B kinase subunit beta (Homo sapiens) (UniProt O14920).
T1 sequence (whole entry): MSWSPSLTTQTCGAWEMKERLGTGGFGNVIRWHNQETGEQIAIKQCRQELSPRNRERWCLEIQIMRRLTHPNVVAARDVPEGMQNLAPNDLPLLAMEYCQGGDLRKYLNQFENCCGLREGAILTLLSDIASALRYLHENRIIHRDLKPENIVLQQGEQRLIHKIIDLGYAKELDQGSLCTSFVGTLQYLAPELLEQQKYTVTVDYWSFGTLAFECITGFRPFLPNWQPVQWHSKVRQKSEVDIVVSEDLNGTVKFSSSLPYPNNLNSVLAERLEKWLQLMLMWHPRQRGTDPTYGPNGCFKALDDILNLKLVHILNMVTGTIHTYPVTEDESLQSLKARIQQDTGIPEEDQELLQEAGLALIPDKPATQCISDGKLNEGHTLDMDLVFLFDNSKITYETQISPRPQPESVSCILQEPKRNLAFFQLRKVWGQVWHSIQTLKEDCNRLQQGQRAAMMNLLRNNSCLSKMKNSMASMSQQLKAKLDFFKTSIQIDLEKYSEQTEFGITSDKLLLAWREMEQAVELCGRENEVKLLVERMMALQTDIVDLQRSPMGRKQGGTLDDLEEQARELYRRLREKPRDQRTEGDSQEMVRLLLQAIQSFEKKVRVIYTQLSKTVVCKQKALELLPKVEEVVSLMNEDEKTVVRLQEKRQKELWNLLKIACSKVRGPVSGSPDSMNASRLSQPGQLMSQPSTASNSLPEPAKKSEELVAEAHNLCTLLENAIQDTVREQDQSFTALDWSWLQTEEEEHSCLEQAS
The experiment is described as follows: Residual activity of IKK-beta at 10 uM by microplate scintillation counting.

For experiment [6], the target named is Receptor-type tyrosine-protein kinase FLT3 (Homo sapiens) (UniProt P36888). The experiment is described as follows: Residual activity of wild type FLT3 at 1 uM by microplate scintillation counting.
Receptor-type tyrosine-protein kinase FLT3 (Homo sapiens), sequence (P36888 whole entry): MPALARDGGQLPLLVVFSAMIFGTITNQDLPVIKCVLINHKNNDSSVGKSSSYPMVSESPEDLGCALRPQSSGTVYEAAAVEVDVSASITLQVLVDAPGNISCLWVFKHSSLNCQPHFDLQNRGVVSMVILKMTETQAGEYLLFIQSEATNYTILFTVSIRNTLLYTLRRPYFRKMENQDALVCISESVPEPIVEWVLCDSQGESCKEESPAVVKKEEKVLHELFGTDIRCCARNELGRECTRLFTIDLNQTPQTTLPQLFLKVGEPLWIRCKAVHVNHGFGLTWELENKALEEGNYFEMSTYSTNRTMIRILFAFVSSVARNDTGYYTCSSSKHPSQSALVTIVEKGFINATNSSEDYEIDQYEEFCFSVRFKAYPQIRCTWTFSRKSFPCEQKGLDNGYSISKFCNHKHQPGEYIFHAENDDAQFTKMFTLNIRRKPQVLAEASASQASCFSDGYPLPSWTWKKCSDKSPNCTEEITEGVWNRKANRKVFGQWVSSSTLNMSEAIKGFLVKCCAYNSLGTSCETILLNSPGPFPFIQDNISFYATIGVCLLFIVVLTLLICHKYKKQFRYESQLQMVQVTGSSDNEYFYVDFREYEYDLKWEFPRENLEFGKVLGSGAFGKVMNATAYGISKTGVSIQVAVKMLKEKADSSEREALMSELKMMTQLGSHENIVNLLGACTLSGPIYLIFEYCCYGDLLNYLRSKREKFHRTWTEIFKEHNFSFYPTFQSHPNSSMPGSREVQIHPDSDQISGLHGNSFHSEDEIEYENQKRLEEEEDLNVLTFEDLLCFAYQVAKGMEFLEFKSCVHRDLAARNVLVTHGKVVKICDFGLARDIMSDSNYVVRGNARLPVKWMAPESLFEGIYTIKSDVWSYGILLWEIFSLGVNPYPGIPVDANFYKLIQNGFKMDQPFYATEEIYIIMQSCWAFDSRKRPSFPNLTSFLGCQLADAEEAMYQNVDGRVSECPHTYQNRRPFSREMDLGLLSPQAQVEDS
The target in experiment [7] is Death-associated protein kinase 2 (Homo sapiens) (UniProt Q9UIK4). Nature of the experiment: Residual activity of DAPK2 at 0.1 uM by microplate scintillation counting.
The target in experiment [8] is Focal adhesion kinase 1 (Homo sapiens) (UniProt Q05397). The experiment is described as follows: Residual activity of FAK at 0.1 uM by microplate scintillation counting.
In experiment [9] the target is Cyclin-dependent kinase 5/CDK5 activator 1 (Homo sapiens) (UniProt Q00535+Q15078). Nature of the experiment: Residual activity of CDK5/p35NCK at 1 uM by microplate scintillation counting. The experiment is classed as protein-complex assay.
Experiment [10] concerns the target Serine/threonine-protein kinase PAK 3 (Homo sapiens) (UniProt O75914). Nature of the experiment: Residual activity of PAK3 at 0.1 uM by microplate scintillation counting.
Experiment [11] concerns the target T2, Ephrin type-B receptor 1 (Homo sapiens) (UniProt P54762).
T2 sequence (whole entry): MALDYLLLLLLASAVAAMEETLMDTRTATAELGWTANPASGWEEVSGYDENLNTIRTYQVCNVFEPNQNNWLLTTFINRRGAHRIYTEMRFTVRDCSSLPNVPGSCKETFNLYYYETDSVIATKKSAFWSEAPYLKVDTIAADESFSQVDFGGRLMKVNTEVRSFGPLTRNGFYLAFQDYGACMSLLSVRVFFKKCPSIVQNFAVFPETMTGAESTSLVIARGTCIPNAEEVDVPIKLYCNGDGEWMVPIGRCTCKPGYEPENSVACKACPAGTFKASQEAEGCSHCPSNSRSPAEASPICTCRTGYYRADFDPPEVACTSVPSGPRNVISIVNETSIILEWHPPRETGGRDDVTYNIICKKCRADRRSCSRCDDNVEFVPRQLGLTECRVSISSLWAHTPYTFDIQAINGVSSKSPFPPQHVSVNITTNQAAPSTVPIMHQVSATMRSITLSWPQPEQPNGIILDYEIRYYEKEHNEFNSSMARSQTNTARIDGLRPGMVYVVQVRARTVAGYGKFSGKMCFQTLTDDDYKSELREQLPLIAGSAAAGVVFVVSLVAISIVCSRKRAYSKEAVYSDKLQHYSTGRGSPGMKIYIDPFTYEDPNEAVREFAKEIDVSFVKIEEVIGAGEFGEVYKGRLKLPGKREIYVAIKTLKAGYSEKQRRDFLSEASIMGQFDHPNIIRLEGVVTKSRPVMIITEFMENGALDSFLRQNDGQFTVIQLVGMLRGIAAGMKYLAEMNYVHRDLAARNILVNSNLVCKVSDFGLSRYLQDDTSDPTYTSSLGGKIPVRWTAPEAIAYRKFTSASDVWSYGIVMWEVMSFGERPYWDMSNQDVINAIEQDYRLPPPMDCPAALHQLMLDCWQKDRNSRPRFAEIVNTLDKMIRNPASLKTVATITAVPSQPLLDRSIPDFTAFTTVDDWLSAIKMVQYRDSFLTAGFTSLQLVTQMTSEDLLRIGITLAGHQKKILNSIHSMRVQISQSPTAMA
Nature of the experiment: Residual activity of EPHB1 at 1 uM by microplate scintillation counting.

The target in experiment [12] is Eukaryotic translation initiation factor 2-alpha kinase 1 (Homo sapiens) (UniProt Q9BQI3). The experiment is described as follows: Residual activity of HRI at 10 uM by microplate scintillation counting.
Eukaryotic translation initiation factor 2-alpha kinase 1 (Homo sapiens), sequence (Q9BQI3 whole entry): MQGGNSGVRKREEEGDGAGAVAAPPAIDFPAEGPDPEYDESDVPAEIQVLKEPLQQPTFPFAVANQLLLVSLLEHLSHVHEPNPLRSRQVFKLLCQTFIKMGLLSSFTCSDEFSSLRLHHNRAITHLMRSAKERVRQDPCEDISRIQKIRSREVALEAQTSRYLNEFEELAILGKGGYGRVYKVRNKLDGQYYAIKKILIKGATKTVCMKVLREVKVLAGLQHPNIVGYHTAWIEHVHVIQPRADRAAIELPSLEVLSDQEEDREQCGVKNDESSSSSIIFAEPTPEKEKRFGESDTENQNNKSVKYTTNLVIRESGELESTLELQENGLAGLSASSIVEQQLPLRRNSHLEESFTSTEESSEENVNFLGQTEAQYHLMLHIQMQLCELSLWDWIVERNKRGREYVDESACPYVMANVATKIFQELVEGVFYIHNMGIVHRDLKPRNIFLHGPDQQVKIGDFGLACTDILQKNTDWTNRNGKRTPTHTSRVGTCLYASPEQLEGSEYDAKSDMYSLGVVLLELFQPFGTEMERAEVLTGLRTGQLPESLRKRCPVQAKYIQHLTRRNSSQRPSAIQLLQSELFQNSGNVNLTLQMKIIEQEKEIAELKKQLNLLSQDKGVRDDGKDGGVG
Experiment [13] addresses 5'-AMP-activated protein kinase catalytic subunit alpha-1 (Homo sapiens) (UniProt Q13131). The experiment is described as follows: Residual activity of AMPK-alpha1 fl at 10 uM by microplate scintillation counting.
Experiment [14] addresses Cyclin-dependent kinase 16 (Homo sapiens) (UniProt Q00536). Nature of the experiment: Residual activity of PCTAIRE1 at 1 uM by microplate scintillation counting.
Experiment [15] deals with Tyrosine-protein kinase Fer (Homo sapiens) (UniProt P16591). Nature of the experiment: Residual activity of FER at 0.1 uM by microplate scintillation counting.
Tyrosine-protein kinase Fer (Homo sapiens), sequence (P16591 whole entry, looked up): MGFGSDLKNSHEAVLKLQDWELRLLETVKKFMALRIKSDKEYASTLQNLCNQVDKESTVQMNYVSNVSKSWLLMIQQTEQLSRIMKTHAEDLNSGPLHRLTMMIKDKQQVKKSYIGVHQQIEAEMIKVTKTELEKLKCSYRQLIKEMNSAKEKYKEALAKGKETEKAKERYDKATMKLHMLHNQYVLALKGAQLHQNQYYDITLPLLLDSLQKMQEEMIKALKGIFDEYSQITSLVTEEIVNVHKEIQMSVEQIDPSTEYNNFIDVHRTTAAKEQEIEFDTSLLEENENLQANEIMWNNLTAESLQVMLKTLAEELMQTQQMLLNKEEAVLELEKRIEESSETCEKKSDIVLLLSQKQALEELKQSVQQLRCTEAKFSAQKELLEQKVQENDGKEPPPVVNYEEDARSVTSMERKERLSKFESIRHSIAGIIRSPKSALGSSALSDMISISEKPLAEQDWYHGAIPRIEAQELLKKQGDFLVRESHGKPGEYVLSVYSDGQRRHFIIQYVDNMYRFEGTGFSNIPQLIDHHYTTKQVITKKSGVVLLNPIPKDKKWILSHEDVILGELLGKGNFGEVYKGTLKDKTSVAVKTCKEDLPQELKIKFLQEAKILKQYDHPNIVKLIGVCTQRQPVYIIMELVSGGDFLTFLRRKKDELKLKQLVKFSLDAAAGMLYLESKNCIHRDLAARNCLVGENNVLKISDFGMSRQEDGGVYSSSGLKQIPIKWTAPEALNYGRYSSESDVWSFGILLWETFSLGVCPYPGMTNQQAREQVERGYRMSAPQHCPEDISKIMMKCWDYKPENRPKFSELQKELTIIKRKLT
In experiment [16] the target is Dual specificity protein kinase CLK1 (Homo sapiens) (UniProt P49759). The experiment is described as follows: Residual activity of CLK1 at 0.1 uM by microplate scintillation counting.
Dual specificity protein kinase CLK1 (Homo sapiens), sequence (P49759 whole entry, looked up): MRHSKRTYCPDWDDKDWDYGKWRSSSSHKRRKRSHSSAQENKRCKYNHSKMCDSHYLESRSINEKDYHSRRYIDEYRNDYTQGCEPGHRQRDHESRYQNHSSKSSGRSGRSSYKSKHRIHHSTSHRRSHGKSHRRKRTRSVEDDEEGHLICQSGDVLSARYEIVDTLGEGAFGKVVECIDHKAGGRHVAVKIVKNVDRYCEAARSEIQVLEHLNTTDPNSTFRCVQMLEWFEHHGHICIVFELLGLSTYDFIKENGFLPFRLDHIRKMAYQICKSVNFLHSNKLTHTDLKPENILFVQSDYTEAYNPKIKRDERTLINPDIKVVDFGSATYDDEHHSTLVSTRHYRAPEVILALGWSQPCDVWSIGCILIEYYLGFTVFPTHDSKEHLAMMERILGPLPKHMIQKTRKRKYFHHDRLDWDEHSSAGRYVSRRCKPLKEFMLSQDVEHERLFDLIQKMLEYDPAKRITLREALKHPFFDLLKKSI
In experiment [17] the target is T1, Inhibitor of nuclear factor kappa-B kinase subunit beta (Homo sapiens). Nature of the experiment: Residual activity of IKK-beta at 1 uM by microplate scintillation counting.
Experiment [18] has as its target Tyrosine-protein kinase Yes (Homo sapiens) (UniProt P07947). The experiment is described as follows: Residual activity of YES at 1 uM by microplate scintillation counting.
Experiment [19] has as its target Tyrosine-protein kinase receptor UFO (Homo sapiens) (UniProt P30530). The experiment is described as follows: Residual activity of AXL at 10 uM by microplate scintillation counting.

Serine/threonine-protein kinase PAK 3 (Homo sapiens), sequence (O75914 whole entry, looked up): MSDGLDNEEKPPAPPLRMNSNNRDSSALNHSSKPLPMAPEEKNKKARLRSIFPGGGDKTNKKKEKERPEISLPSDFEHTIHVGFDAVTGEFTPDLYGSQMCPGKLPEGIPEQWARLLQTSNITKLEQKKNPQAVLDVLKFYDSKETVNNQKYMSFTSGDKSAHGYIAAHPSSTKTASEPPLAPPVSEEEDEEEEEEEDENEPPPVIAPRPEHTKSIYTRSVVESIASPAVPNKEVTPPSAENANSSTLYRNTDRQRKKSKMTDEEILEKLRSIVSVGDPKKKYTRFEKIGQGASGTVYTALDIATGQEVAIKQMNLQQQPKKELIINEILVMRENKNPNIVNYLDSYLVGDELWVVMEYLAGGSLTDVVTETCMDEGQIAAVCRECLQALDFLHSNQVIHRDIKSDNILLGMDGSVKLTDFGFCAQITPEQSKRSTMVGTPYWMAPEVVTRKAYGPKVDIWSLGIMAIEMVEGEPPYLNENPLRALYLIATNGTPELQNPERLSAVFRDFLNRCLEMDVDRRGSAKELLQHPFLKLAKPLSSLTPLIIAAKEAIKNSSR
Death-associated protein kinase 3 (Homo sapiens), sequence (O43293 whole entry, looked up): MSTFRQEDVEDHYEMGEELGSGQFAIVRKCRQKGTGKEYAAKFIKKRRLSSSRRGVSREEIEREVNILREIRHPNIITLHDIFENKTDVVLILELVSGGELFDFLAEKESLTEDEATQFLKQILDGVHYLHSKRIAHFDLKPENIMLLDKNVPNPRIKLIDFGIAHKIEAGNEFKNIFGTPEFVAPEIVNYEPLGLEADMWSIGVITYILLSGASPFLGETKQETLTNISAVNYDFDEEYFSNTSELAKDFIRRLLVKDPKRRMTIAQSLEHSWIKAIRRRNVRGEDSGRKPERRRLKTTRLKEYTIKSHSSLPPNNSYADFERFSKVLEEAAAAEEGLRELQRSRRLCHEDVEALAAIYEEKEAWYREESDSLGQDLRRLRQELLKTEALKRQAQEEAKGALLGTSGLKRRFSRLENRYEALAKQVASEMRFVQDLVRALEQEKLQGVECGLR
5'-AMP-activated protein kinase catalytic subunit alpha-1 (Homo sapiens), sequence (Q13131 whole entry, looked up): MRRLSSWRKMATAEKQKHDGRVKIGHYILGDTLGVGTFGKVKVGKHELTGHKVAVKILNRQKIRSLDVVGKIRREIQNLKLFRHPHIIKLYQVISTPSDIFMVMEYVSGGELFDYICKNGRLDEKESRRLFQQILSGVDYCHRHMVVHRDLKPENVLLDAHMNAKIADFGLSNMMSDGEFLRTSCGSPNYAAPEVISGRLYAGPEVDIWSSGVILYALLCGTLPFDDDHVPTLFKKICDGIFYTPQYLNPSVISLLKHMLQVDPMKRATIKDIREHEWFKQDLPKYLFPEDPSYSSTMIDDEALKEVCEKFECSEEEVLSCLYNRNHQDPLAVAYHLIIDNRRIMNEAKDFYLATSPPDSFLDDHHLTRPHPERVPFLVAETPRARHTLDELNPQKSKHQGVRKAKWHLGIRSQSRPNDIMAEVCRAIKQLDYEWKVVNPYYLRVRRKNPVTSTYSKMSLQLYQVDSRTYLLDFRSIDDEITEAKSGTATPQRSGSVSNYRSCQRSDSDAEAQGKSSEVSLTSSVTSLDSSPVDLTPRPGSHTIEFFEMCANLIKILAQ
Tyrosine-protein kinase Yes (Homo sapiens), sequence (P07947 2-543 limits assumed): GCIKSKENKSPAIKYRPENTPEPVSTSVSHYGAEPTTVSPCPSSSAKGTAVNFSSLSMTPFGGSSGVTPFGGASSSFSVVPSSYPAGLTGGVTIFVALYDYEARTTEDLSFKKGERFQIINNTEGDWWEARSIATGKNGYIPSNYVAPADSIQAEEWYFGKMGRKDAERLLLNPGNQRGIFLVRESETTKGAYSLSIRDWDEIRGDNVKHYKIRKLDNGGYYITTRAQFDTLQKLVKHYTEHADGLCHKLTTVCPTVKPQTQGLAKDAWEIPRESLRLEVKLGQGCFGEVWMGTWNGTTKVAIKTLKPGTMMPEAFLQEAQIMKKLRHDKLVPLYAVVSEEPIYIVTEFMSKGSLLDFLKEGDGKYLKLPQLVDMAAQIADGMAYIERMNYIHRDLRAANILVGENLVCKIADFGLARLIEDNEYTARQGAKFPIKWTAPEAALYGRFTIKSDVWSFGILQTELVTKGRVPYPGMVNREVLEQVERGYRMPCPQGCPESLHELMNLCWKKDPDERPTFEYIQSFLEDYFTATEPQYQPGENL

On to `COc1cc2c(Oc3ccc(-c4nc5ccccc5s4)cc3)ncnc2cc1OCCCN1CCCC1`, for which the residual activity was found to be 94% in experiment [1]; 58% in experiment [2]; 89% in [3]; 113% in [4]; 135% in [5]; 90% in [6]. The residual activity in experiment [7] was 96%; in experiment [8] it was 99%; in experiment [9], 97%; in experiment [10] it was 95%; in experiment [11], 102%; in experiment [12] it was 112%. In addition, the residual activity in experiment [13] worked out at 73%; in experiment [14] it was 81%; in experiment [15], 96%; in [16], 114%; in experiment [17] it was 98%; in [18] it was 84%. The residual activity in experiment [19] turned out to be 57%.

`COc1cc2c(Oc3ccc(-c4nc5ccccc5s4)cc3F)ncnc2cc1OCCCN1CCN(C)CC1`: the residual activity amounted to 91% in experiment [1]; 93% in experiment [2]; 74% in experiment [3]; 85% in experiment [4]; 116% in experiment [5]; 113% in experiment [6]. Further, the residual activity in [7] was 85%; in experiment [8] it was 98%; in [9], 86%; in [10], 97%; in [11], 134%; in experiment [12] it was 57%. Further, the residual activity in [13] amounted to 57%; in [14], 86%; in experiment [15] it was 108%; in [16], 96%; in experiment [17] it was 88%; in [18], 49%. Besides, in experiment [19], the residual activity stood at 54%.

Consider `COc1cc2c(Oc3ccc(-c4nc5ccccc5s4)cc3)ncnc2cc1OCCCN1CCN(C)CC1`, for which the residual activity in experiment [1] came to 101%; in experiment [2], 74%; in experiment [3], 75%; in [4] it was 73%; in experiment [5] it was 109%; in experiment [6], 97%. The residual activity in experiment [7] came out at 81%; in experiment [8] it was 94%; in [9], 85%; in [10] it was 95%; in experiment [11] it was 124%; in [12] it was 127%. The residual activity in [13] stood at 61%; in experiment [14], 88%; in experiment [15], 104%; in experiment [16], 94%; in experiment [17] it was 86%; in [18] it was 68%. Further, the residual activity in experiment [19] was 125%.
